Square brackets hold non-standard residues; d marks the D form. Peptide text beside a SMILES is read from it. Nspe = C[C@H](NCC(=O)O)c1ccccc1; Nlys = NCCCCNCC(=O)O
Legend:
[1] = tested on: Staphyloccus aureus (ATCC #25923); experiment: Murine intraperitoneal infection model; type: in vivo; conditions: mouse, S. aureus I.P., 4 mg/kg peptoid I.P.; eleven mice for 1-Nhis6,12
Procedure: Using a murine peritoneal injection mouse model, the ability of peptoids to treat infection was evaluated in vivo. The results from three separate studies of peptoid 1 and two of peptoid 1-Nhis6,12 against saline treated controls are shown in FIG. 7. The horizontal line represents the geometric mean of each population.
Murine intraperitoneal infection model. Bacteria was prepared by inoculating 5 mL of MHB with a single colony of Staphyloccus aureus (ATCC #25923) from a freshly streaked plate and grown overnight at 37 C. The following morning, the bacteria was subcultured by diluting 1/3 in MHB and grown for approximately 1 .5 hours. The bacteria were then diluted 10-fold in a 5% mucin in PBS solution and thoroughly mixed. A sample was reserved to later determine the amount of bacteria the mice received.
Mice were weighed, marked, and injected I.P. with 200 uL of S. aureus inoculum. Four hours post infection, mice were treated I.P. with 4 mg/kg peptoid (˜100 ug per mouse). The infection is allowed to proceed overnight. Mice were euthanized by CO2 asphyxiation after 24 hours, and the peritoneal cavity was exposed and lavaged with 5 mL PBS. The lavage was mixed and reserved on ice until plating. The lavages were diluted to 10^−5 (in1/10 increments) in PBS, and all dilutions were plated onto MH agar, in duplicate. 50 uL of lavage was spot plated, allowed to dry, and incubated overnight at 37° C. Colonies were counted the following day, and the CFU/ml of each sample was calculated. Plates that had too many colonies to count were assigned an arbitrary number of 1000 colonies.

human erythrocytes = experiment: Hemolysis assay; type: cell-based
Outline: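 Peptoid dilution series (1:2 in PBS) combined with equal volume of 20 vol % human red cells from heparinised blood, 37 °C for 1 h. Released hemoglobin measured as supernatant absorbance at 350 nm post-centrifugation, scaled between PBS-only wells and 0.2 vol % Triton X-100 total lysis.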

E. coli ATCC 35218 = type: cell-based; conditions: Table 8; CAMHB
[2] = tested on: both strains of E. faecalis; type: cell-based; conditions: text summary of Table 7A
Procedure: The activities of ampetoids tested against BSL2 Gram-positive strains, however, compared very favorably to those of pexiganan.
Broad-spectrum antibacterial assays. MICs of compounds were determined by microdilution procedure in Mueller-Hinton broth (MHB) in accordance with CLSI M7-A6 protocols in a manner similar to that described for the screen antibacterial assays. Inoculated microtiter plates were incubated at 35° C. for 24 hours prior to the result being recorded. Four ATCC strains that were used as standards are recommended by CLSI: Pseudomonas aeruginosa ATCC 27853, Escherichia coli ATCC 25922, Staphylococcus aureus ATCC 29213 and Enterococcus faecalis ATCC 29212. Other strains from the ATCC collection include Proteus vulgaris ATCC 49132, Proteus mirabilis ATCC 35659, Klebsiella pneumoniae ATCC 33495, Enterobacter aerogenes ATCC 35029 and Serratia marcescens ATCC 13880. S. aureus NRS100 (COL) is a well characterized methicillian-resistant S. aureus (MRSA) strain. The strains S. aureus VAN1 and S. aureus VAN2, vancomycin-resistant MRSA strains that were isolated in Michigan and Pennsylvania, were the first vancomycin-resistant strains clinically isolated. S. aureus NRS 119 and S. aureus NRS 120 are linezolid-resistant isolates from the Network on Antimicrobial Resistance in S. aureus (NARSA) collection. […]

MTS assay, NIH 3T3 cells = type: cell-based, mouse; conditions: NIH 3T3 fibroblast cells; Table 6; 50% inhibitory dose against NIH 3T3 mouse fibroblast cells; read-out: ID50
Outline: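 NIH/3T3 cells seeded at 5,000 per well, grown a day in DMEM with 10% FBS, then washed and exposed to serially diluted peptoid in HBSS together with MTS reagent. Absorbance at 490 nm read after 3 hours at 37 °C as a measure of metabolic activity; mean of six replicates.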

In the case of `C[C@@H](c1ccccc1)N(CC(N)=O)C(=O)CN(C(=O)CN(CCCCN)C(=O)CN(C(=O)CN(C(=O)CN(CCCCN)C(=O)CN(C(=O)CN(C(=O)CN(CCCCN)C(=O)CN(C(=O)CN(C(=O)CNCCCCN)[C@@H](C)c1ccccc1)[C@@H](C)c1ccccc1)[C@@H](C)c1ccccc1)[C@@H](C)c1ccccc1)[C@@H](C)c1ccccc1)[C@@H](C)c1ccccc1)[C@@H](C)c1ccccc1` [compound 1, H-(NLys-Nspe-Nspe)4-NH2] (H-[Nlys][Nspe][Nspe][Nlys][Nspe][Nspe][Nlys][Nspe][Nspe][Nlys][Nspe][Nspe]-NH2), the “mice that died prematurely during the exposure period” value [1] is reported as “no mice”, the HD10 (human erythrocytes; Table 6, 10% hemolytic dose) is reported as 21 µM and the HD10 (human erythrocytes; Table 8) is reported as 14 µM. For the same compound, the HD50 (human erythrocytes; Table 8) was 63 µM, the “MIC for E. coli ATCC 35218” value (E. coli ATCC 35218) was 6.3 µM and the “MIC, range over both strains of E. faecalis” value [2] was 4 to 8 µg/mL. For the same compound, the CC50 at 3 h (MTS assay, NIH 3T3 cells) was 5.1 µM.

— US20120295838A1, “Selective poly-substituted glycine antibiotics and related compositions” (priority 2008, published 2012)
